Reference: PMC3361238, “The Effects of Addition of Mononucleotides on Sma nuc Endonuclease Activity” (The Scientific World Journal, 2012)

What was measured:
[1] = target: T1, Sma nuc endonuclease (isoform Sm2) (Serratia marcescens, UniProt P13717); test: hyperchromic RNA hydrolysis assay at […] nm; secondary double reciprocal plot of Lineweaver-Burk segments; assay type: biochemical
T1 construct: gene nucA; Sm2 known as the full 245-residue mature form (signal peptide removed)
T1 sequence (P13717 22-266): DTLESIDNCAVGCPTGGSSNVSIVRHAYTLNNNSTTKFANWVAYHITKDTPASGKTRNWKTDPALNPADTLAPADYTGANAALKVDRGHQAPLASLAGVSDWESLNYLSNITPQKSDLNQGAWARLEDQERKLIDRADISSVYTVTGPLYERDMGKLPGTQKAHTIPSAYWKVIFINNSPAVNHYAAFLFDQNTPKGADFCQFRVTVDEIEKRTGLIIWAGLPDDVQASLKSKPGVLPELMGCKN

[2] = target: T1, Sma nuc endonuclease (isoform Sm2); test: hyperchromic RNA hydrolysis assay at […] nm; Cornish-Bowden plot S/V against [I]; assay type: biochemical; settings: RNA substrate 0.03-0.18 mM, 50 mM Tris-HCl pH 8.5, MgSO4 1.2-7.2 mM, 37 °C; uncompetitive

Compound	Ki [1] [µM]	Ki [2] [µM]
Nc1ncnc2c1ncn2[C@@H]1O[C@H](COP(=O)(O)O)[C@@H](O)[C@H]1O [AMP]	76.5	
Nc1ccn([C@@H]2O[C@H](COP(=O)(O)O)[C@@H](O)[C@H]2O)c(=O)n1 [CMP]		86.2
Nc1nc2c(ncn2[C@@H]2O[C@H](COP(=O)(O)O)[C@@H](O)[C@H]2O)c(=O)[nH]1 [GMP]		229
O=c1ccn([C@@H]2O[C@H](COP(=O)(O)O)[C@@H](O)[C@H]2O)c(=O)[nH]1 [UMP]		310.7
Nc1ncnc2c1ncn2[C@H]1C[C@H](O)[C@@H](COP(=O)(O)O)O1 [dAMP]	60	
